Test [1] deals with T1, human TRPV1 (Homo sapiens (Human), UniProt Q8NER1). Briefly: pH-based assay, Protocol 2, TRPV1/CHO cells (hpH-CHO), Fura-2 Ca2+ influx. It counts as cell-based. The following applies: pH 5.0-5.1 (H2SO4), mean ± SEM. The protocol: For Protocol 2, a Chinese Hamster Ovary cell line (CHO) that has been engineered to constitutively express human recombinant TRPV1 was used (TRPV1/CHO cells). The TRPV1/CHO cell line was generated as described below.
TRPV1/CHO cells were seeded in the 96-well clear-bottom black-wall plate (Nunc) at densities of 1-2×10^4 cells/well and grown in 100 μL of culture medium (alpha-MEM supplemented with 10% FBS, 20 mM HEPES, 1 mg/mL geneticin and 1% antibiotic-antimycotic mixed stock solution) for 1-2 days before the experiment.
(1) Culture medium was removed using an 8-channel-pipette (Rainin, USA) from the 96-well plate and the wells were refilled with 100 μL of loading buffer (20 mM HEPES, 115 mM NaCl, 5.4 mM KCl, 0.8 mM MgCl2, 1.8 mM CaCl2, 13.8 mM D-glucose, 2.5 mM probenecid, pH 7.4) containing 5 μM Fura-2 AM (Dojin, Japan).
(2) The 96-well plate was incubated at 37° C. for 45 min.
(3) The loading buffer was removed from each well. The cells were subsequently washed twice with 150 μL of measuring buffer (20 mM HEPES, 115 mM NaCl, 5.4 mM KCl, 0.8 mM MgCl2, 5.0 mM CaCl2, 13.8 mM D-glucose, 0.1% BSA, pH 7.4) (no probenecid). The wells were then refilled with 80 μL of measuring buffer.
(4) After an incubation at 4° C. for 15 min, the 96-well plate was transferred to a model FDSS-3000 plate reader apparatus (Hamamatsu Photonics K.K., Japan).
(5) The Fura-2 fluorescent intensity was monitored at a wavelength of 340 nm and at 380 nm, respectively, at a rate of 0.5 Hz for a total of 240 seconds. After 16 time points (32 sec) of baseline detection, 20 μL of agonist solution was added to each well. The final volume was 100 μL/well.
(6) Fluorescence intensity ratio refers to the fluorescence intensity at 340 nm over the fluorescence intensity at 380 nm at a particular time point. The baseline was set as the average of the fluorescent intensity ratios for the first 16 time points before the addition of agonist solution. The maximum response was the highest fluorescent intensity ratio during the 60 time points following addition of agonist solution.
(7) Maximal signal ratios from each well were calculated as output data using the FDSS-3000 analysis program. Data were analyzed using Excel (Microsoft) and XLfit (idbs) software.
In an “agonist plate,” two different agonist solutions with different H2SO4 concentrations were used for the pH assay (see, e.g., FIG. 3A of U.S. Patent Application Publication No. US 2009/0170868 A1). For the first half of a 96-well plate one agonist solution was used; for the second half the other agonist solution was used. The agonist solutions were obtained by diluting sulfuric acid (1M H2SO4) with measuring buffer. The concentrations for the two agonist solutions were determined as described above in Section 2 of Protocol 2.
The sulfuric acid concentrations between the two agonist solutions differed by 0.5 mM. In the experiment described in Section 2 of Protocol 2, the sulfuric acid concentrations in the agonist solutions were determined to be 16 mM and 16.5 mM, respectively. After 1:4 dilution of the agonist solutions, the final sulfuric acid concentration was 3.2 mM and 3.3 mM, respectively. The resulting pH value for the pH assay was 5.0 to 5.1.
Test compounds were dissolved in DMSO to yield 1 mM stock solutions. The stock solutions were further diluted using DMSO in […] serial dilution steps with 6 points (1000, 250, 62.5, 15.625, 3.9062, and 0.977 μM). The thereby-obtained solutions were further diluted in measuring buffer (1:100) as 10× stock serial dilutions with a DMSO concentration of 1%. 10 μL of a 10× stock was added into each well of an “antagonist plate” (see step 3.3.(4) below). Thus, the final concentrations of antagonists was as follows: 0.977, 3.906, 15.63, 62.5, 250, and 1000 nM containing 0.1% DMSO (see, e.g., FIG. 3B of U.S. Patent Application Publication No. US 2009/0170868 A1).
Steps (1) and (2) of this Assay were the same as steps 2.2.(1) and 2.2.(2), respectively, of Protocol 2. […]

Test [2] has as its target T1, human TRPV1. The experiment in a line: Capsaicin-based assay, Protocol 2, TRPV1/CHO cells (hCAP-CHO), Fluo-4 FLIPR. The following applies: 100 nM capsaicin, mean ± SEM. It counts as cell-based. The text has this: The TRPV1/CHO cell line was generated as described below. […] The resulting PCR products were purified from agarose gels using Gel Band Purification Kit (GE Healthcare Bioscience) and were subcloned into pCR-Blunt vector (Invitrogen). The cloned cDNA was fully sequenced using a fluorescent dye-terminator reagent (BigDye Terminator ver3.1 Cycle Sequencing Kit, Applied Biosystems) and ABI Prism 3100 genetic analyzer (Applied Biosystems). The pCR-Blunt vector containing the hTRPV1 cDNA was subjected to restriction digestion with EcoR1. The restriction fragment was subcloned into expression vector pcDNA3.1(-) (Invitrogen) and named pcDNA3.1(-)-hVR1 plasmid. The sequence of the cDNA encoding TRPV1 is available at GenBank accession number AJ277028. […] The cells were transfected with the pcDNA3.1(-)-hVR1 plasmid using FuGENE6 (Roche) according to the manufacturer's protocol. 24 hr after transfection, neomycin-resistant cells were selected using 1 mg/mL G418 (Nacalai Tesque). […] The cells expressing hTRPV1 were cultured in the growth medium supplemented with 1 mg/mL G418. […] Capsaicin-based Assay: […] Subsequently, the cells were loaded by incubation in 0.1 mL of wash buffer containing Fluo-4 at 3 μM final concentration. After 1 hour, the cells were washed twice with 0.2 mL wash buffer and resuspended in 0.1 mL wash buffer. The plates were then transferred to a Fluorescence Imaging Plate Reader (Molecular Devices). Fluorescence intensity was monitored for 15 seconds to establish a baseline. […] The final concentration of the compound was adjusted to range from 100 μM to 1.5625 μM. […] Data were collected over the entire time course and analyzed using Excel and the curve-fitting formula GraphPad Prism.

T1 sequence (Q8NER1 whole entry, looked up): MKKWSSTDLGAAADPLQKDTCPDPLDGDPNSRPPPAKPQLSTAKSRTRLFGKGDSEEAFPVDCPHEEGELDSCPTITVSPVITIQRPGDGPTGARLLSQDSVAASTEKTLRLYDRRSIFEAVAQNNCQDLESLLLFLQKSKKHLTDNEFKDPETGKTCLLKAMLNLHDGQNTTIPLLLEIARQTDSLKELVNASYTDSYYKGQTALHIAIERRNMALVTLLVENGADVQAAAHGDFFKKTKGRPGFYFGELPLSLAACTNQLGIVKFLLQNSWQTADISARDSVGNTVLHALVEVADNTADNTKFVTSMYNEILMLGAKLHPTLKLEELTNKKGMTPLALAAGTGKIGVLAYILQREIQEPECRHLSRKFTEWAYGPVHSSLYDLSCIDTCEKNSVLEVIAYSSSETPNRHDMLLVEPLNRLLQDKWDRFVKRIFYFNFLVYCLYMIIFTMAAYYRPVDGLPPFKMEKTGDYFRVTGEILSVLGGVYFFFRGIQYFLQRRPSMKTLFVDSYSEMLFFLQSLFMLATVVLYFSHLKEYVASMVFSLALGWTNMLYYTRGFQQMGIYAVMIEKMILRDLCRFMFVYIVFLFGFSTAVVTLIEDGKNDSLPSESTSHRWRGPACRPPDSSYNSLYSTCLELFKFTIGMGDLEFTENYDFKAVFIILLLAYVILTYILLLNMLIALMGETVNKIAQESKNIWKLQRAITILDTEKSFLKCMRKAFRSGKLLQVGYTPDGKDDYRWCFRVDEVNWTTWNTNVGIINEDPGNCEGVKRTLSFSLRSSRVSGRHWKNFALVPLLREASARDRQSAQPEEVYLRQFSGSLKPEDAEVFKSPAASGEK

One may read the IC50 as the concentration that gives 50% inhibition. The low end stands for greater potency, the high end for weaker potency. On to `C[C@H](O)[C@@H](O)c1cnc(N2CCN(C(=O)Nc3nc4ccccc4s3)C[C@@H]2C)c(F)c1` [B122(k), (S)—N-(benzo[d]thiazol-2-yl)-4-{5-[(1S,2S)-1,2-dihydroxypropyl]-3-fluoropyridin-2-yl}-3-methylpiperazine-1-carboxamide], for which the figures for the 50% inhibitory concentration (IC50) in test [1] and in test [2] were 2040 ± 245 nM and 502 ± 128 nM, respectively.

As to `C[C@@H]1CN(C(=O)Nc2nc3ccccc3s2)CCN1c1ncc([C@@H](O)[C@@H](C)O)cc1F` [B122(o), (R)—N-(benzo[d]thiazol-2-yl)-4-{5-[(1R,2R)-1,2-dihydroxypropyl]-3-fluoropyridin-2-yl}-3-methylpiperazine-1-carboxamide], the results for the half-maximal inhibitory concentration (IC50) in test [1] and in test [2] were 6880 nM and 199 ± 38 nM, respectively.

On to `C[C@@H](O)[C@H](O)c1cnc(N2CCN(C(=O)Nc3nc4ccccc4s3)C[C@@H]2C)c(F)c1` [B122(p), (S)—N-(benzo[d]thiazol-2-yl)-4-{5-[(1R,2R)-1,2-dihydroxypropyl]-3-fluoropyridin-2-yl}-3-methylpiperazine-1-carboxamide], for which the IC50 was found to be 1020 nM in test [1] and 506 ± 155 nM in test [2].

In the case of `C[C@H](O)[C@@H](O)c1cnc(N2CCN(C(=O)Nc3nc4ccc(F)cc4s3)C[C@H]2C)c(F)c1` [B125(j), (R)-4-{5-[(1S,2S)-1,2-dihydroxypropyl]-3-fluoropyridin-2-yl}-N-(6-fluorobenzo[d]thiazol-2-yl)-3-methylpiperazine-1-carboxamide], the IC50 in test [1] worked out at 303 nM; in test [2], 194 ± 49 nM.

Take `C[C@@H]1CN(C(=O)Nc2nc3ccc(F)cc3s2)CCN1c1ncc([C@@H](O)[C@@H](C)O)cc1F` [B125(o), (R)-4-{5-[(1R,2R)-1,2-dihydroxypropyl]-3-fluoropyridin-2-yl}-N-(6-fluorobenzo[d]thiazol-2-yl)-3-methylpiperazine-1-carboxamide]: the figures for the IC50 in test [1] and in test [2] were 398 ± 152 nM and 309 ± 105 nM, respectively.

Take `C[C@@H](O)[C@H](O)c1cnc(N2CCN(C(=O)Nc3nc4ccc(F)cc4s3)C[C@@H]2C)c(F)c1` [B125(p), (S)-4-Z{5-[(1R,2R)-1,2-dihydroxypropyl]-3-fluoropyridin-2-yl}-N-(5-fluorobenzo[d]thiazol-2-yl)-3-methylpiperazine-1-carboxamide]: the IC50 was 211 ± 50 nM in test [1] and 171 ± 1 nM in test [2].

`C[C@H](O)[C@@H](O)c1cnc(N2CCN(C(=O)Nc3nc4cc(F)ccc4s3)C[C@H]2C)c(F)c1` [B155(j), (R)-4-{5-[(1S,2S)-1,2-dihydroxypropyl]-3-fluoropyridin-2-yl}-N-(5-fluorobenzo[d]thiazol-2-yl)-3-methylpiperazine-1-carboxamide]: the IC50 in test [1] is 439 ± 71 nM; in test [2], 344 ± 116 nM.

Regarding `C[C@@H]1CN(C(=O)Nc2nc3cc(F)ccc3s2)CCN1c1ncc([C@@H](O)[C@@H](C)O)cc1F` [B155(o), (R)-4-{5-[(1R,2R)-1,2-dihydroxypropyl]-3-fluoropyridin-2-yl}-N-(5-fluorobenzo[d]thiazol-2-yl)-3-methylpiperazine-1-carboxamide], the IC50 in test [1] came to 1230 ± 595 nM; in test [2], 249 ± 34 nM.

Turning to `C[C@@H]1CN(C(=O)Nc2nc3cc(F)c(F)cc3s2)CCN1c1ncc([C@@H](O)[C@@H](C)O)cc1F` [B158(o), (R)—N-(5,6-difluorobenzo[d]thiazol-2-yl)-4-{5-[(1R,2R)-1,2-dihydroxypropyl]-3-fluoropyridin-2-yl}-3-methylpiperazine-1-carboxamide], the IC50 in test [1] turned out to be 171 ± 29 nM; in test [2], 146 ± 52 nM.

The record behind these values is patent US9273043B2, “TRPV1 antagonists including dihydroxy substituent and uses thereof” (Purdue Pharma L.P., priority 2011, dated 2016).
